Experiments:
[1] = target: FXa (Homo sapiens, UniProt P00742); assay: Inhibition of factor Xa (FXa-IC50); assay type: biochemical
Text: The inhibition of factor Xa by the compounds according to the invention and the measurement of the anticoagulant and antithrombotic activity can be determined by conventional in-vitro or in-vivo methods. A suitable method is described, for example, by J. Hauptmann et al. in Thrombosis and Haemostasis 1990, 63, 220-223.
The inhibition of factor Xa can be measured, for example by the method of T. Hara et al. in Thromb. Haemostas. 1994, 71, 314-319.

Chain of FXa (P00742 235-488 limits assumed): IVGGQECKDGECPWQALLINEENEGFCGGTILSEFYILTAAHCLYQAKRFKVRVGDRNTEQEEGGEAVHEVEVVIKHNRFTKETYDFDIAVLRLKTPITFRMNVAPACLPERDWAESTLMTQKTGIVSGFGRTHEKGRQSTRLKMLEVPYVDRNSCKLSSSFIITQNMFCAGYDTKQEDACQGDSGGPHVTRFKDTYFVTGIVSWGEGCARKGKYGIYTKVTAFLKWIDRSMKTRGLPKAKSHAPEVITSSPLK
Chain of FXa (P00742 41-179 limits assumed): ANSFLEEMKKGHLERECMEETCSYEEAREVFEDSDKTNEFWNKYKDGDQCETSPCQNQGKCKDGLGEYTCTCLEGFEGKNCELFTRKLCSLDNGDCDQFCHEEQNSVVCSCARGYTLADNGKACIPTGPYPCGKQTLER

melting point | IC50 [1] | SMILES
84 °C |  | COCC(=O)N(C)c1ccc(NC(=O)[C@H]2C[C@@H](O)CN2C(=O)Nc2ccc(Cl)cc2)cc1 [Compound A4, 1-N-(4-Chlorophenyl)-2-N-{4-[(2-methoxyethanoyl)methylamino]phenyl}-(2R,4R)-4-hydroxypyrrolidine-1,2-dicarboxamide]
 | 37 nM | CN(C(=O)CN1CCC(O)CC1)c1ccc(NC(=O)[C@H]2C[C@@H](O)CN2C(=O)Nc2ccc(Cl)cc2)cc1 [Compound A1-2, 1-N-(4-chlorophenyl)-2-N-{4-[(2-(4-hydroxypiperidin-1-yl)ethanoyl)-methylamino]phenyl}-(2R,4R)-4-hydroxypyrrolidine-1,2-dicarboxamide]
121 °C | 17 nM | CCNCC(=O)N(C)c1ccc(NC(=O)[C@H]2C[C@@H](O)CN2C(=O)Nc2ccc(Cl)cc2)cc1 [Compound A3, 1-N-(4-Chlorophenyl)-2-N-{4-[(2-ethylaminoethanoyl)methylamino]-phenyl}-(2R,4R)-4-hydroxypyrrolidine-1,2-dicarboxamide]
 | 54 nM | CN(C(=O)CN1CCOCC1)c1ccc(NC(=O)[C@H]2C[C@@H](O)CN2C(=O)Nc2ccc(Cl)cc2)cc1 [Compound A1-1, 1-N-(4-chlorophenyl)-2-N-{4-[(2-(morpholin-4-yl)ethanoyl)methylamino]phenyl}-(2R,4R)-4-hydroxypyrrolidine-1,2-dicarboxamide]
95 °C |  | CN(C)CC(=O)N(C)c1ccc(NC(=O)[C@H]2C[C@@H](O)CN2C(=O)Nc2ccc(Cl)cc2)cc1 [Compound A1, 1-N-(4-Chlorophenyl)-2-N-{4-[(2-dimethylaminoethanoyl)methylamino]-phenyl}-(2R,4R)-4-hydroxypyrrolidine-1,2-dicarboxamide]

From US7732481B2, “Prolinylarylacetamides” (Merck Patent Gesellschaft mit beschrankter Haftung, priority 2003, dated 2010)
